Values joined by “and” are separate entries in the source; they are usually repeats but may differ in a detail not shown here. Equal values may be shown once.
Row | melting point | SMILES
1 | 237 °C | O=C(O)c1cccnc1 [Nicotinic acid]
2 | 101 °C | c1ccc2c(c1)Cc1ccccc1O2 [Xanthene]
3 | 112 °C | O=C(O)CS(=O)(=O)c1ccccc1 [(phenylsulfonyl)acetic acid]
4 | 27 °C | O=Cc1ccc(F)c(Cl)c1 [3-chloro-4-fluorobenzaldehyde]
5 | -90.7 °C | C1CCC1 [cyclobutane]
6 | 97 °C and 96.5 °C (2×) and 96 °C | CCCOC(=O)c1ccc(O)cc1 [propyl paraben]
7 | -140 °C | CCC(C)S (centres undefined) [2-butanethiol]
8 | -73 °C | CCOC(=O)CC [ethyl_propionate]
9 | 80 °C | CCCCCCCCCCCCCCCCCC(=O)O[C@H]1CC[C@@]2(C)C(=CC[C@H]3[C@@H]4CC[C@H]([C@H](C)CCCC(C)C)[C@@]4(C)CC[C@@H]32)C1 [cholesteryl stearate]
10 | -69 °C | CCCCCOCCCCC [pentyl_ether]
11 | 107 °C | CC(=O)c1cc(F)cc(F)c1O [3',5'-difluoro-2'-hydroxyacetophenone]
12 | 83 °C | COc1ccc(O)cc1OC [3,4-dimethoxyphenol]
13 | 170 °C | Oc1ccc(cc1)C(CC)=C(/CC)c2ccc(O)cc2 [Diethylstilbestrol]
14 | 184 °C | COc1ccc(C(=O)O)cc1 [p-anisic_acid]
15 | 96 °C | CCOC(=O)Cc1c(C)n(C(=O)c2ccc(Cl)cc2)c2ccc(OC)cc12 [indomethacin ethyl ester]
16 | 108 °C | CC12CCC3C(CCC4CCCCC43C)C1CC(=O)C2 (centres undefined) [androstan-16-one]
17 | 190 °C and 189 °C | NC(=O)c1cnccn1 [pyrazinamide]
18 | 209 °C | O=c1c2ccccc2sc2ccccc12 [9H-Thioxanthen-9-one]
19 | 146 °C | COc1ccc(N/N=C(\C#N)c2nc(-c3ccc(C)cc3)cs2)cc1
20 | 47 °C | CCCCCCCCCCCCCCC(C)O (centres undefined) [2-hexadecanol]
21 | -100 °C | CCOC(C)OCC [acetaldehyde diethyl acetal]
22 | 142 °C | O=C(/C=C/C=C/c1ccccc1)/C=C/C=C/c1ccccc1 [1,9-diphenyl-1,3,6,8-nonatetraen-5-one]

Row | melting point | SMILES
23 | -104 °C | CCSCC [diethyl sulfide]
24 | -103 °C | CCCCOCC [1-Ethoxybutane]
25 | 160 °C | Cc1ncc([N+](=O)[O-])n1CCO [2-(2-Methyl-5-nitro-1H-imidazol-1-yl)ethanol]
26 | 72 °C | CC1(C)C(O)[C@H](Cl)[C@@H]2CC[C@H]1O2 (some centres undefined)
27 | 277 °C | N[C@@H](Cc1ccc(O)c(O)c1)C(=O)O [Levodopa]
28 | 148 °C | O=C(O)CCN1C(=O)COc2ccc(Cl)cc21
29 | 149 °C | COc1ccccc1N/N=C1\C(=O)N(CN2CCCCC2)N=C1C
30 | 147 °C | CCN(CC)CCNC(=O)c1cc(Cl)c(N)cc1OC [Metoclopramide]
31 | -91 °C | CCCCCCC [N-heptane]
32 | 22 °C | CCCCCCCCCCCCCCCCC [N-heptadecane]
33 | 54 °C | CCOC(=O)c1ccc(Cl)c([N+](=O)[O-])c1 [ethyl 4-chloro-3-nitrobenzoate]
34 | -41 °C | Cc1cccc(C(C)(C)C)c1 [1-methyl-3-tert-butylbenzene]
35 | 169 °C | NC1=NN(c2ccccc2)CC1 [3-amino-4,5-dihydro-1-phenyl-1h-pyrazole]
36 | 125 °C | COc1cccc(F)c1B(O)O [2-fluoro-6-methoxybenzeneboronic acid]
37 | 116 °C | NC(=S)c1ccccc1 [thiobenzamide]
38 | 278 °C | Cc1cc(/C=C2\SC(=Nc3ccccc3)N=C2O)c(C)n1-c1ccc(F)cc1 [OSM-S-10]
39 | 61 °C | OCc1ccnc(Br)c1 [2-bromo-4-pyridinemethanol]
40 | 251 °C | O=c1cc(-c2ccc(O)c(O)c2)oc2ccccc12 [3',4'-dihydroxyflavone]
41 | 132 °C | CC(=O)CCc1oc2ccc(NC(C)=O)cc2c1-c1ccc(C)o1
42 | 209 °C | Cc1c(CSC2OCC(O)C(O)C2O)c(C)c(CSC2OCC(O)C(O)C2O)c(C)c1CSC1OCC(O)C(O)C1O (centres undefined)
43 | 70 °C | COc1ccc(Cl)c(Cl)c1Cl [1-Methoxy-2,3,4-trichlorobenzene]
44 | 154 °C | O=C(O)c1cc(F)c(Cl)nc1Cl [2,6-dichloro-5-fluoronicotinic acid]

Row | melting point | SMILES
45 | -102 °C | CCCC(C)(C)O [2-methyl-2-pentanol]
46 | 34 °C | Cc1ccc(O)cc1 [p-Cresol]
47 | 137 °C | CCOC(=O)c1cccc(B(O)O)c1 [3-(ethoxycarbonyl)benzeneboronic acid]
48 | -80 °C | CCCCCCC(C)C [2-Methyloctane]
49 | 233 °C | O=C(O)c1ccc2c(c1)OCO2 [piperonylic acid]
50 | -5 °C | C1COCCN1 [morpholine]
51 | 20 °C | CC(=O)c1cc(C)cc(C)c1 [3',5'-dimethylacetophenone]
52 | 77 °C | CC(C)(C)OC(=O)N[C@H](Cc1cccc(F)c1)C(=O)O [N-boc-3-fluoro-d-phenylalanine]
53 | 200 °C | CC1(C)S[C@@H]2[C@H](NC(=O)[C@H](N)c3ccccc3)C(=O)N2[C@H]1C(=O)O [ampicillin]
54 | 175 °C | Cc1cccc(B(O)O)c1C [2,3-dimethylbenzeneboronic acid]
55 | 174 °C | CCOC(=O)c1sc(N)nc1C [ethyl 2-amino-4-methylthiazole-5-carboxylate]
56 | -91 °C and -90.6 °C | CCCCCCC [heptane]
57 | 144 °C | NS(=O)(=O)c1ccc(F)c2nonc12 [7-fluorobenzofurazan-4-sulfonamide]
58 | 207 °C | OB(O)c1cccc2ccccc12 [1-naphthaleneboronic acid]
59 | -80 °C | CCCCCCC(C)C [2-methyloctane]
60 | -6 °C | Cc1ccc(C=O)cc1 [p-tolualdehyde]
61 | 75 °C and 72.5 °C | Cc1cccc(O)c1C [2,3-dimethylphenol]
62 | 36 °C | Cc1c(Cl)cccc1[N+](=O)[O-] [2-chloro-6-nitrotoluene]
63 | 163 °C | O=c1ccn([C@@H]2C[C@H](O)[C@@H](CO)O2)c(=O)[nH]1 [2'-Deoxyuridine]
64 | -75 °C | CCCCC1CCCCC1 [butylcyclohexane]
65 | -36 °C | CCCCCCCCc1ccccc1 [N-octylbenzene]
66 | 158 °C (2×) and 159 °C | CN(C)C(=O)Nc1ccc(Cl)c(Cl)c1 [diuron]

Row | melting point | SMILES
67 | 43 °C | CC(C)[C@@H]1CC[C@@H](C)C[C@H]1O [Menthol]
68 | 166 °C | O=[N+]([O-])c1ccc(O)c2ccccc12 [4-nitro-1-naphthol]
69 | 1 °C | CCCCCCCCSCCCCCCCC [di-n-octyl sulfide]
70 | 158 °C | Cc1ccc(C)c2c1C(=O)OC2O (centres undefined) [3-hydroxy-4,7-dimethyl-2-benzofuran-1(3H)-one]
71 | 192 °C | NC(=O)c1ccc(Br)cc1 [4-bromobenzamide]
72 | 192 °C | Nc1ccc(S(=O)(=O)Nc2ccccn2)cc1 [sulfapyridine]
73 | 209 °C | OB(O)c1cccc(O)c1 [3-hydroxybenzeneboronic acid]
74 | 155 °C | O=Cc1ccc(O)c(O)c1 [3,4-dihydroxybenzaldehyde]
75 | 30 °C | Cc1ccc(S)c(S)c1 [3,4-toluenedithiol]
76 | 52 °C | N#Cc1cccc(N)c1 [3-aminobenzonitrile]
77 | 198 °C | CN1/C(=C(\O)Nc2ccccn2)C(=O)c2ccccc2S1(=O)=O [Piroxicam]
78 | 44 °C | C#CCOc1c(Cl)cccc1Cl [3-(2,6-dichlorophenoxy)-1-propyne]
79 | 163 °C | NC(N)=Nc1nc(CSCCC(N)=N[S+2](N)([O-])[O-])cs1
80 | -15 °C | O=C(O)C(F)(F)F [trifluoroacetic acid]
81 | 92 °C | C=CCOc1ccc(CC(=O)O)cc1Cl [alclofenac]
82 | 278 °C | C[C@@H](O)[C@@H](N)C(=O)O [D-allo-threonine]
83 | 89 °C | CCOC(=O)c1ccc(N)cc1 [ethyl p-aminobenzoate]
84 | 134 °C | CCOc1ccc(NC(C)=O)cc1 [phenacetin]
85 | 163 °C | Cc1ccc(C(N)=O)cc1 [p-toluamide]
86 | 357 °C | Cn1cnc2c1c(=O)[nH]c(=O)n2C [theobromine]

Row | SMILES | melting point
87 | O=[N+]([O-])c1cccc(CBr)c1 [3-nitrobenzyl_bromide] | 59 °C
88 | N#CSCSC#N [Methylene bis(thiocyanate)] | 106 °C
89 | CC(CN1CCOCC1)C(C(=O)N1CCCC1)(c1ccccc1)c1ccccc1 (centres undefined) [dextromoramide] | 180 °C
90 | C=CCc1ccccc1O [2-allylphenol] | -6 °C
91 | CC(C)Br [2-bromopropane] | -89 °C
92 | CC1CO1 (centres undefined) [propylene oxide] | -112 °C
93 | CCI [Iodoethane] | -108 °C
94 | c1cc2ccc3cccc4ccc(c1)c2c34 [Pyrene] | 150 °C
95 | CCc1ccc2ccccc2c1 [2-ethylnaphthalene] | -7.35 °C
96 | O=C(O)CCl [Chloroacetic acid] | 63 °C
97 | O=C/C=C/c1ccccc1 [(2E)-3-Phenylacrylaldehyde] | -7 °C
98 | CC(=O)c1ccc(Cl)cc1 [4'-chloroacetophenone] | 19 °C
99 | O=C(O)Cc1ccccc1 [phenylacetic_acid] | 79 °C
100 | Oc1ccc(Cl)cc1 [4-Chlorophenol] | 44 °C
101 | O=S(=O)(NS(=O)(=O)C(F)(F)F)C(F)(F)F | 51.5 °C
102 | S=C=Nc1ccc(I)cc1 [4-iodophenyl isothiocyanate] | 76 °C
103 | BrC(Br)Br [bromoform] | 9 °C
104 | Oc1ccccc1I [o-iodophenol] | 42 °C
105 | [O-][n+]1ccccc1S [2-mercaptopyridine n-oxide] | 71 °C
106 | N#CCCCC#N [glutaronitrile] | -29 °C
107 | O=C5\C=C4/C(C3CCC2(C(CCC2OC(=O)c1ccccc1)C3CC4)C)(C)CC5 (centres undefined) [Testosterone benzoate] | 195 °C
108 | Clc1cc(-c2cc(Cl)c(Cl)c(Cl)c2Cl)c(Cl)c(Cl)c1Cl [PCB-194] | 157 °C
109 | Cc1ccc(Cl)c(O)c1 [2-chloro-5-methylphenol] | 47 °C
